Laboratory results taken from PMC10281575, “PfCRT mutations conferring piperaquine resistance in falciparum malaria shape the kinetics of quinoline drug binding and transport” (PLOS Pathogens, 2023).
Values joined by “and” are separate entries in the source; they are usually repeats but may differ in a detail not shown here. Equal entries are not always repeated.

Biological target: T1, PfCRT^Dd2 (Plasmodium falciparum, UniProt Q8IBZ9, A220S/I356T/K76T/M74I/N326S/N75E/Q271E/R371I)
T1 sequence (Q8IBZ9 1-424 M74I/N75E/K76T/A220S/Q271E/N326S/I356T/R371I): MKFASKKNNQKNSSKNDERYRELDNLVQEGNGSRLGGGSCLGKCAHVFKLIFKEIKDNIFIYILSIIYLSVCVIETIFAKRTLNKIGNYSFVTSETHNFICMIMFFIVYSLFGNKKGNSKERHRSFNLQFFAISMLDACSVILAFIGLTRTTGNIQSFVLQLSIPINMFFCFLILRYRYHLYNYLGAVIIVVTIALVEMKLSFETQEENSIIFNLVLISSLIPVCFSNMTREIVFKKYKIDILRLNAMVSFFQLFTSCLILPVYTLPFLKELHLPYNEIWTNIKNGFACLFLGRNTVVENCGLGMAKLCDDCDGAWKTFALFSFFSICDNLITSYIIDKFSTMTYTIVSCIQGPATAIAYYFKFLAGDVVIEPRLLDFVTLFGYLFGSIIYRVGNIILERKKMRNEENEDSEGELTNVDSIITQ
Experiment: Radiolabeled drug uptake (transport assay) in Xenopus laevis oocytes expressing PfCRT^Dd2
Type: cell-based
Design: expressed in transfected cells; host or cells: Xenopus laevis oocytes injected with in vitro transcribed RNA (pSP64T)
Procedure: The two kinetic parameters were derived by fitting the Michaelis-Menten equation to the kinetic data (Table 1).
Adult female X. laevis frogs (purchased from NASCO) were anesthetized by submersion in a solution of 0.3% (w/v) 3-amino benzoate methanesulfonate for 15 min. Sections of the ovary were surgically removed and placed in Ca^2+-free ND96 buffer supplemented with 0.1% collagenase D (w/v; Roche), 0.5% BSA (w/v) and 9 mM Na2HPO4 at 18°C for 14–16 h while gently shaking. The oocytes were then washed several times with ND96 buffer (5 mM HEPES, pH 7.5, 96 mM NaCl, 2 mM KCl, 1.8 mM CaCl2, 1 mM MgCl2), supplemented with […] gentamycin. Healthy-looking stage V-VI oocytes were manually selected and randomly grouped for injection. A codon-optimized coding sequence of PfCRT was subcloned into the pSP64T expression vector and subsequently linearized using the restriction endonuclease BamHI or SalI (New England Biolabs GmbH). RNA for injection was transcribed in vitro using the mMESSAGE mMACHINE SP6 Transcription kit (Ambion), diluted with nuclease-free water to a final concentration of 0.6 μg/μL and stored at -80°C. RNA was injected using precision-bore glass capillary tubes (3.5-inch glass capillaries; Drummond Scientific Co.), which were pulled on a vertical puller (P-87 Flaming/Brown micropipette puller, Sutter Instrument Co.) and graduated. The micropipettes were connected to a microinjector (Nanoject II Auto-Nanoliter Injector, Drummond Scientific Co.). Injection was conducted under stereomicroscopic control. 50 nL of nuclease-free water alone (control oocytes) or 50 nL of nuclease-free water containing 30 ng of RNA was injected per oocyte. Injected oocytes were kept for 72 h at 18°C in ND96 buffer with two daily buffer changes before being used for further experiments.
Drug transport assays were performed as previously described. Briefly, measurements of radiolabeled drug uptake were made over 1 h, unless otherwise specified. […] Where specified, one or more unlabeled drugs were also present at the indicated concentrations. […] The uptake assays were terminated by removing the oocytes from the reaction medium and washing them three times with 2 mL of ice-cold ND96 buffer. Each oocyte was transferred to a separate scintillation vial and lysed by the addition of 200 μL of a 5% SDS solution. The radioactivity in the sample was measured using a liquid scintillation analyser Tri-Carb 4910 TR (PerkinElmer). Water-injected oocytes were analyzed in parallel as a negative control. The buffer from each condition was measured in duplicate in parallel to each experiment to transform counts per minute into pmol of drug. Drug uptake attributable to PfCRT was determined by subtracting the background uptake from water-injected oocytes from that of PfCRT-expressing oocytes. In all cases, at least three independent experiments were performed on oocytes from different frogs, and for each condition in an experiment, measurements were made from 10 oocytes per treatment.

[1] = 50 μM PPQ, pH 6.0, total uptake, one value per biological replicate
[2] = 50 μM PPQ, pH 6.0, water-injected uptake subtracted, per replicate
[3] = 60 min, pH 6, per biological replicate

Clc1ccc2c(N3CCN(CCCN4CCN(c5ccnc6cc(Cl)ccc56)CC4)CC3)ccnc2c1 [PPQ, piperaquine]
PfCRTDd2-mediated PPQ uptake at 10 µM PPQ (10 µM PPQ, single replicates): 7.56 pmol oocyte-1 h-1 and 10.37 pmol oocyte-1 h-1 and 9.52 pmol oocyte-1 h-1
PfCRTDd2 PPQ uptake at 10 min [1]: 37.95 pmol oocyte-1 and 17.31 pmol oocyte-1 and 66.26 pmol oocyte-1 and 58.58 pmol oocyte-1 and 53.50 pmol oocyte-1 and 34.40 pmol oocyte-1
PfCRTDd2 PPQ uptake at 30 min [1]: 69.53 pmol oocyte-1 and 108.95 pmol oocyte-1 and 50.26 pmol oocyte-1
PfCRTDd2 PPQ uptake at 60 min [1]: 123.14 pmol oocyte-1 and 94.65 pmol oocyte-1 and 103.77 pmol oocyte-1 and 219.78 pmol oocyte-1 and 140.45 pmol oocyte-1 and 145.26 pmol oocyte-1
PfCRTDd2 PPQ uptake at 90 min [1]: 183.05 pmol oocyte-1 and 183.06 pmol oocyte-1 and 147.41 pmol oocyte-1
PfCRTDd2 PPQ uptake at 120 min [1]: 118.72 pmol oocyte-1 and 197.79 pmol oocyte-1 and 316.81 pmol oocyte-1 and 143.54 pmol oocyte-1 and 477.33 pmol oocyte-1
PfCRTDd2 PPQ uptake at 180 min [1]: 167.85 pmol oocyte-1 and 274.70 pmol oocyte-1 and 265.00 pmol oocyte-1
PfCRTDd2-mediated PPQ uptake at 10 min [2]: 17.92 pmol oocyte-1 and 6.16 pmol oocyte-1 and 19.07 pmol oocyte-1 and 16.58 pmol oocyte-1 and 10.50 pmol oocyte-1 and 10.36 pmol oocyte-1
PfCRTDd2-mediated PPQ uptake at 30 min [2]: 29.61 pmol oocyte-1 and 27.31 pmol oocyte-1 and 14.01 pmol oocyte-1
PfCRTDd2-mediated PPQ uptake at 60 min [2]: 28.14 pmol oocyte-1 and 21.87 pmol oocyte-1 and 89.78 pmol oocyte-1 and 46.28 pmol oocyte-1 and 30.01 pmol oocyte-1 and 33.33 pmol oocyte-1
PfCRTDd2-mediated PPQ uptake at 90 min [2]: 41.43 pmol oocyte-1 and 74.11 pmol oocyte-1 and 31.93 pmol oocyte-1
PfCRTDd2-mediated PPQ uptake at 120 min [2]: 30.25 pmol oocyte-1 and 19.89 pmol oocyte-1 and 85.94 pmol oocyte-1 and 81.35 pmol oocyte-1 and 70.65 pmol oocyte-1
PfCRTDd2-mediated PPQ uptake at 180 min [2]: 32.52 pmol oocyte-1 and 76.65 pmol oocyte-1 and 72.50 pmol oocyte-1
PfCRTDd2-mediated PPQ uptake at 50 µM PPQ (50 µM PPQ, single replicates): 28.14 pmol oocyte-1 h-1 and 21.87 pmol oocyte-1 h-1 and 89.78 pmol oocyte-1 h-1 and 46.28 pmol oocyte-1 h-1 and 30.01 pmol oocyte-1 h-1 and 33.33 pmol oocyte-1 h-1 and 10.90 pmol oocyte-1 h-1
PfCRTDd2-mediated PPQ uptake at 100 µM PPQ (100 µM PPQ, single replicates): 59.97 pmol oocyte-1 h-1 and 45.22 pmol oocyte-1 h-1 and 64.52 pmol oocyte-1 h-1
PfCRTDd2-mediated PPQ uptake at 200 µM PPQ (200 µM PPQ, single replicates): 87.13 pmol oocyte-1 h-1 and 109.05 pmol oocyte-1 h-1 and 57.84 pmol oocyte-1 h-1
PfCRTDd2-mediated PPQ uptake at 300 µM PPQ (300 µM PPQ, single replicates): 90.42 pmol oocyte-1 h-1 and 110.91 pmol oocyte-1 h-1 and 77.44 pmol oocyte-1 h-1
PfCRTDd2-mediated PPQ uptake at 400 µM PPQ (400 µM PPQ, single replicates): 113.37 pmol oocyte-1 h-1 and 109.88 pmol oocyte-1 h-1 and 74.49 pmol oocyte-1 h-1
PfCRTDd2-mediated PPQ uptake at 500 µM PPQ (500 µM PPQ, single replicates): 118.94 pmol oocyte-1 h-1 and 82.44 pmol oocyte-1 h-1 and 112.35 pmol oocyte-1 h-1
PfCRTDd2-mediated PPQ uptake at 10 µM PPQ [3]: 7.56 pmol oocyte-1 h-1 and 10.37 pmol oocyte-1 h-1 and 9.52 pmol oocyte-1 h-1
PfCRTDd2-mediated PPQ uptake at 50 µM PPQ [3]: 33.33 pmol oocyte-1 h-1 and 10.9 pmol oocyte-1 h-1 and 28.14 pmol oocyte-1 h-1 and 21.87 pmol oocyte-1 h-1 and 89.78 pmol oocyte-1 h-1 and 46.28 pmol oocyte-1 h-1 and 30.01 pmol oocyte-1 h-1
PfCRTDd2-mediated PPQ uptake at 100 µM PPQ [3]: 59.97 pmol oocyte-1 h-1 and 45.22 pmol oocyte-1 h-1 and 64.52 pmol oocyte-1 h-1
PfCRTDd2-mediated PPQ uptake at 200 µM PPQ [3]: 87.13 pmol oocyte-1 h-1 and 109.05 pmol oocyte-1 h-1 and 57.84 pmol oocyte-1 h-1
PfCRTDd2-mediated PPQ uptake at 300 µM PPQ [3]: 90.42 pmol oocyte-1 h-1 and 110.91 pmol oocyte-1 h-1 and 77.44 pmol oocyte-1 h-1
PfCRTDd2-mediated PPQ uptake at 400 µM PPQ [3]: 113.37 pmol oocyte-1 h-1 and 109.88 pmol oocyte-1 h-1 and 74.49 pmol oocyte-1 h-1
PfCRTDd2-mediated PPQ uptake at 500 µM PPQ [3]: 118.94 pmol oocyte-1 h-1 and 82.44 pmol oocyte-1 h-1 and 112.35 pmol oocyte-1 h-1
Vmax, maximal velocity of drug transport (Michaelis-Menten fit, 10-500 μM drug, 60 min, pH 6): 131 ± 3 pmol oocyte^-1 h^-1 and 259.88 pmol oocyte^-1 h^-1
Km (Michaelis-Menten fit, 10-500 μM drug, 60 min, pH 6, read-out: KM, Michaelis constant): 125 ± 9 µM
